Target: T1, SpoIVB (sporulation factor IV B protease) (Bacillus subtilis, UniProt P17896, S378A)
T1 construct: truncated SpoIVB (residues Thr75-Ser426), N-terminal 6 × His and mMBP fusion tags
Assay: microscale thermophoresis (MST), RED-NHS labelled protein
Format: binding

T1 sequence (P17896 75-426 S378A): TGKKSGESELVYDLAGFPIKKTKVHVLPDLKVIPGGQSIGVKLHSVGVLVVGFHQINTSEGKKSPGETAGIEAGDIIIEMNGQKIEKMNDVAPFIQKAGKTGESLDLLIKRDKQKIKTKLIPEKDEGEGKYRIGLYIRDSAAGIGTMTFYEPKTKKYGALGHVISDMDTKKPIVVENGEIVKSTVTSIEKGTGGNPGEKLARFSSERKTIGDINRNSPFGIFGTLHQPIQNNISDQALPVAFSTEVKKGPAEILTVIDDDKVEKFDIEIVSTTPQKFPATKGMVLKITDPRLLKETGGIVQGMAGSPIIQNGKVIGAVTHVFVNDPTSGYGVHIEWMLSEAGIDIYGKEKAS

N=C(N)c1ccccc1 [benzamidine]
Kd: 660 ± 28 µM

Source: paper PMC6581720 (Frontiers in Microbiology, 2019)
